# Results as given in PubChem BioAssay AID1963836 (Molecular Pharmacology Branch, DTP, NCI, 2024).
# Test system: 857933-349-R-J2-PDC complex spheroid viability
# Test: Anticancer human tumor 857933-349-R-J2-PDC patient-derived colon adenocarcinoma cell line growth inhibition [POLQ]
# Settings: for IC50: curve of first compound; for viability, T/C: stronger effect = lower value
# Method in brief: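 Three-cell-type spheroids modelling solid tumor plus stroma served as the readout system; POL inhibitors were tested individually and in combination, concentration ranges set by clinical Cmax where known.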
# [1] = second compound 0.0316 µM, first compound 0.0316 µM
# [2] = second compound 0.0316 µM, first compound 0.1 µM
# [3] = second compound 0.0316 µM, first compound 0.316 µM
# [4] = second compound 0.0316 µM, first compound 1 µM
# [5] = second compound 0.0316 µM, first compound 3.16 µM
# [6] = second compound 0.0316 µM, first compound 10 µM
# [7] = second compound 0.1 µM, first compound 0.0316 µM
# [8] = second compound 0.1 µM, first compound 0.1 µM
# [9] = second compound 0.1 µM, first compound 0.316 µM
# [10] = second compound 0.1 µM, first compound 1 µM
# [11] = second compound 0.1 µM, first compound 3.16 µM
# [12] = second compound 0.1 µM, first compound 10 µM
# [13] = second compound 0.316 µM, first compound 0.0316 µM
# [14] = second compound 0.316 µM, first compound 0.1 µM
# [15] = second compound 0.316 µM, first compound 0.316 µM
# [16] = second compound 0.316 µM, first compound 1 µM
# [17] = second compound 0.316 µM, first compound 3.16 µM
# [18] = second compound 0.316 µM, first compound 10 µM
# [19] = second compound 1 µM, first compound 0.0316 µM
# [20] = second compound 1 µM, first compound 0.1 µM
# [21] = second compound 1 µM, first compound 0.316 µM
# [22] = second compound 1 µM, first compound 1 µM
# [23] = second compound 1 µM, first compound 3.16 µM
# [24] = second compound 1 µM, first compound 10 µM
# [25] = second compound 3.16 µM, first compound 0.0316 µM
# [26] = second compound 3.16 µM, first compound 0.1 µM
# [27] = second compound 3.16 µM, first compound 0.316 µM
# [28] = second compound 3.16 µM, first compound 1 µM
# [29] = second compound 3.16 µM, first compound 3.16 µM
# [30] = second compound 3.16 µM, first compound 10 µM
# [31] = second compound 10 µM, first compound 0.0316 µM
# [32] = second compound 10 µM, first compound 0.1 µM
# [33] = second compound 10 µM, first compound 0.316 µM
# [34] = second compound 10 µM, first compound 1 µM
# [35] = second compound 10 µM, first compound 3.16 µM
# [36] = second compound 10 µM, first compound 10 µM
# 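Further: spheroids exposed to compounds for seven days before readout.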
smiles,measurement,setting,value
C#Cc1c(F)ccc2cc(O)cc(-c3ncc4c(N5CC6CCC(C5)N6)nc(OCC56CCCN5CC(F)C6)nc4c3F)c12 (stereo not drawn) + Nc1ccc(C#CCN(C(=O)Cc2ncc(C(F)(F)F)cc2C(F)(F)F)c2ccc(F)cc2)nn1,IC50,second compound 0.0316 µM,> 10 µM
same,IC50,second compound 0.1 µM,> 10 µM
same,IC50,second compound 0.316 µM,> 10 µM
same,IC50,second compound 1 µM,> 10 µM
same,IC50,second compound 3.16 µM,> 10 µM
same,IC50,second compound 10 µM,> 10 µM
same,"viability, T/C",[1],84.4%
same,"viability, T/C",[2],99.5%
same,"viability, T/C",[3],82.7%
same,"viability, T/C",[4],80.8%
same,"viability, T/C",[5],78.2%
same,"viability, T/C",[6],73.1%
same,"viability, T/C",[7],101%
same,"viability, T/C",[8],101%
same,"viability, T/C",[9],86.8%
same,"viability, T/C",[10],87.1%
same,"viability, T/C",[11],84%
same,"viability, T/C",[12],80.7%
same,"viability, T/C",[13],95.3%
same,"viability, T/C",[14],92.4%
same,"viability, T/C",[15],79%
same,"viability, T/C",[16],73%
same,"viability, T/C",[17],93.8%
same,"viability, T/C",[18],75.5%
same,"viability, T/C",[19],104%
same,"viability, T/C",[20],100%
same,"viability, T/C",[21],79.5%
same,"viability, T/C",[22],79.7%
same,"viability, T/C",[23],86.8%
same,"viability, T/C",[24],70.6%
same,"viability, T/C",[25],101%
same,"viability, T/C",[26],86.8%
same,"viability, T/C",[27],82.7%
same,"viability, T/C",[28],76.7%
same,"viability, T/C",[29],107%
same,"viability, T/C",[30],68.6%
same,"viability, T/C",[31],87%
same,"viability, T/C",[32],76.8%
same,"viability, T/C",[33],87%
same,"viability, T/C",[34],73.9%
same,"viability, T/C",[35],76.3%
same,"viability, T/C",[36],69%
CCc1c2c(nc3ccc(O)cc13)-c1cc3c(c(=O)n1C2)COC(=O)[C@]3(O)CC + Nc1ccc(C#CCN(C(=O)Cc2ncc(C(F)(F)F)cc2C(F)(F)F)c2ccc(F)cc2)nn1,IC50,second compound 0.0316 µM,0.0149 µM
same,IC50,second compound 0.1 µM,0.0136 µM
same,IC50,second compound 0.316 µM,0.0109 µM
same,IC50,second compound 1 µM,0.0127 µM
same,IC50,second compound 3.16 µM,0.0132 µM
same,IC50,second compound 10 µM,0.0127 µM
same,"viability, T/C","second compound 0.0316 µM, first compound 0.00316 µM",65.4%
same,"viability, T/C","second compound 0.0316 µM, first compound 0.01 µM",63.6%
same,"viability, T/C",[1],27.2%
same,"viability, T/C",[2],18.6%
same,"viability, T/C",[3],10.8%
same,"viability, T/C",[4],2.67%
same,"viability, T/C","second compound 0.1 µM, first compound 0.00316 µM",64.9%
same,"viability, T/C","second compound 0.1 µM, first compound 0.01 µM",60.5%
same,"viability, T/C",[7],23.2%
same,"viability, T/C",[8],14.3%
same,"viability, T/C",[9],9.81%
same,"viability, T/C",[10],2.89%
same,"viability, T/C","second compound 0.316 µM, first compound 0.00316 µM",68%
same,"viability, T/C","second compound 0.316 µM, first compound 0.01 µM",53.6%
same,"viability, T/C",[13],21.7%
same,"viability, T/C",[14],14.7%
same,"viability, T/C",[15],9.84%
same,"viability, T/C",[16],1.82%
same,"viability, T/C","second compound 1 µM, first compound 0.00316 µM",68.1%
same,"viability, T/C","second compound 1 µM, first compound 0.01 µM",58.1%
same,"viability, T/C",[19],24.9%
same,"viability, T/C",[20],15.6%
same,"viability, T/C",[21],8.49%
same,"viability, T/C",[22],2.23%
same,"viability, T/C","second compound 3.16 µM, first compound 0.00316 µM",66.2%
same,"viability, T/C","second compound 3.16 µM, first compound 0.01 µM",58.9%
same,"viability, T/C",[25],27.4%
same,"viability, T/C",[26],17.6%
same,"viability, T/C",[27],12.5%
same,"viability, T/C",[28],3.21%
same,"viability, T/C","second compound 10 µM, first compound 0.00316 µM",70.2%
same,"viability, T/C","second compound 10 µM, first compound 0.01 µM",57.9%
same,"viability, T/C",[31],25.9%
same,"viability, T/C",[32],20.9%
same,"viability, T/C",[33],12.7%
same,"viability, T/C",[34],5.79%
CCCS(=O)(=O)Nc1ccc(F)c(C(=O)c2c[nH]c3ncc(-c4ccc(Cl)cc4)cc23)c1F + Nc1ccc(C#CCN(C(=O)Cc2ncc(C(F)(F)F)cc2C(F)(F)F)c2ccc(F)cc2)nn1,IC50,second compound 0.0316 µM,6.17 µM
same,IC50,second compound 0.1 µM,6.22 µM
same,IC50,second compound 0.316 µM,5.99 µM
same,IC50,second compound 1 µM,6.43 µM
same,IC50,second compound 3.16 µM,6.48 µM
same,IC50,second compound 10 µM,6.48 µM
same,"viability, T/C",[1],103%
same,"viability, T/C",[2],102%
same,"viability, T/C",[3],102%
same,"viability, T/C",[4],102%
same,"viability, T/C",[5],97.5%
same,"viability, T/C",[6],15.6%
same,"viability, T/C",[7],93.5%
same,"viability, T/C",[8],112%
same,"viability, T/C",[9],88.6%
same,"viability, T/C",[10],104%
same,"viability, T/C",[11],102%
same,"viability, T/C",[12],14.9%
same,"viability, T/C",[13],103%
same,"viability, T/C",[14],89%
same,"viability, T/C",[15],99.6%
same,"viability, T/C",[16],91%
same,"viability, T/C",[17],98.3%
same,"viability, T/C",[18],12.9%
same,"viability, T/C",[19],116%
same,"viability, T/C",[20],93%
same,"viability, T/C",[21],82.1%
same,"viability, T/C",[22],106%
same,"viability, T/C",[23],109%
same,"viability, T/C",[24],17.9%
same,"viability, T/C",[25],77.1%
same,"viability, T/C",[26],97.2%
same,"viability, T/C",[27],99.3%
same,"viability, T/C",[28],96.8%
same,"viability, T/C",[29],99.6%
same,"viability, T/C",[30],23.3%
same,"viability, T/C",[31],97.7%
same,"viability, T/C",[32],90.7%
same,"viability, T/C",[33],93.4%
same,"viability, T/C",[34],86.5%
same,"viability, T/C",[35],92%
same,"viability, T/C",[36],24.6%
CCc1cc2c(N3CCc4c(cc(Cn5ccnc5)cc4-c4cn(C)nc4C(F)(F)F)C3=O)cc(C)nc2c(OC)n1 + COC1C(OC(N)=O)C(O)C(Oc2ccc3c(O)c(NC(=O)c4ccc(O)c(CC=C(C)C)c4)c(=O)oc3c2C)OC1(C)C,IC50,second compound 0.0316 µM,> 10 µM
same,IC50,second compound 0.1 µM,> 10 µM
same,IC50,second compound 0.316 µM,> 10 µM
same,IC50,second compound 1 µM,> 10 µM
same,IC50,second compound 3.16 µM,> 10 µM
same,IC50,second compound 10 µM,> 10 µM
same,"viability, T/C",[1],116%
same,"viability, T/C",[2],80.3%
same,"viability, T/C",[3],72.3%
same,"viability, T/C",[4],61.8%
same,"viability, T/C",[5],68.5%
same,"viability, T/C",[6],56.2%
same,"viability, T/C",[7],97.5%
same,"viability, T/C",[8],77.6%
same,"viability, T/C",[9],95.5%
same,"viability, T/C",[10],58.6%
same,"viability, T/C",[11],68.2%
same,"viability, T/C",[12],52.9%
same,"viability, T/C",[13],117%
same,"viability, T/C",[14],88.3%
same,"viability, T/C",[15],75.3%
same,"viability, T/C",[16],61.7%
same,"viability, T/C",[17],82.9%
same,"viability, T/C",[18],67.5%
same,"viability, T/C",[19],102%
same,"viability, T/C",[20],95.3%
same,"viability, T/C",[21],78.8%
same,"viability, T/C",[22],60.2%
same,"viability, T/C",[23],52.8%
same,"viability, T/C",[24],57.7%
same,"viability, T/C",[25],77.7%
same,"viability, T/C",[26],76.1%
same,"viability, T/C",[27],89.7%
same,"viability, T/C",[28],80.1%
same,"viability, T/C",[29],57.5%
same,"viability, T/C",[30],68.3%
same,"viability, T/C",[31],71.3%
same,"viability, T/C",[32],86.3%
same,"viability, T/C",[33],72.7%
same,"viability, T/C",[34],71.3%
same,"viability, T/C",[35],91.8%
same,"viability, T/C",[36],58%
